Reference: ChEMBL document CHEMBL1158006, “Alkylfurans: effects of alkyl side-chain length on insecticidal activity” (1999)
Activity calls are given as the source filed them. The rule behind the calls is not given here.

Columns and labels:
Spodoptera exigua [1] = experiment: Insecticidal activity against Spodoptera exigua; type: functional
Spodoptera exigua [2] = experiment: Insecticidal activity against Spodoptera exigua assessed as increase of larval mortality at 5 umol/g in artificial diet after 9 days relative to control; type: functional
Spodoptera exigua [3] = experiment: Insecticidal activity against Spodoptera exigua assessed as reduction of weight at 5 umol/g in artificial diet after 9 days relative to control; type: functional, organism-based

SMILES	LC50 (Spodoptera exigua [1]) [µg/g]	Activity (Spodoptera exigua [2]) [%]	Activity (Spodoptera exigua [3])
CCCCCCCCCCCCCCCCCc1ccco1 [2-(HEPTADECYL)FURAN]	1206	95	–
CCCCCCCCCCCCCCCCCCc1ccco1	–	68	–
CCCCCCCCCCCCCCCc1ccco1	1031	93	–
CCCCCCCCCCCCCCc1ccco1	–	<50	Active
